Laboratory results as given in patent US20260215422A1, “HERBICIDAL COMPOSITIONS” (SYNGENTA CROP PROTECTION AG, priority 2022, published 2026).

What was measured:
[1] = tested on: RW478-16; experiment: Additional testing of Group 12 herbicides with other HPPD inhibitor herbicides (Table 7), Colby; type: in vivo, Amaranthus sp. (AMAPA); conditions: for Observed Product 1-(Group 12): Group 12 herbicide alone 15.8 g/ha
From the text: (§1) When active ingredients are combined, the activity to be expected (E) for any given active ingredient combination obeys the so-called Colby Formula and can be calculated as follows (Colby, S. R., Calculating synergistic and antagonistic responses of herbicide combination, Weeds, Vol. 15, pages 20-22; 1967): • ppm=milligrams of active ingredient (a.i.) per liter • X=% action by first active ingredient using p ppm of the active ingredient • Y=% action by second active ingredient using q ppm of the active ingredient.
(§2) According to Colby, the expected action of active ingredients A+B using p+q ppm of active ingredient is represented by the following formula:
(§3) [formula] • If the action actually observed (O) is greater than the expected action E then the action of the combination is super-additive, i.e. there is a synergistic effect. In mathematical terms, synergism corresponds to a positive value for the difference of (O-E). In the case of purely complementary addition of activities (expected activity), said difference (O-E) is zero. A negative value of said difference (O-E) signals a loss of activity compared to the expected activity.
(§4) Additional testing within the scope of disclosure was performed using other HPPD inhibitor herbicides and Group 12 herbicides.

[2] = tested on: S129; experiment: as above; type: in vivo, Amaranthus sp. (AMAPA); conditions: for Observed Product 1-(Group 12): Group 12 herbicide alone 15.8 g/ha
From the text: as §1, §2, §3, §4

[3] = tested on: Group 27 resistant AMAPA; experiment: Greenhouse preemergence trial, % control at 29 days after application; type: in vivo, Palmer amaranth
[4] = tested on: HPPD resistant AMATA; experiment: Field trial of dent corn, control 34 days after application; type: in vivo, common waterhemp, Amaranthus rudis Sauer; conditions: 70 g ai/ha diflufenican
Experimental: Diflufenican, was already very active on HPPD-R AMAPA providing 98% control alone at 35 g ai/ha, the rate used in mixture with MST+BIR making it difficult to determine if there was synergy between the herbicides. Nevertheless, additional data regarding diflufenican and MST+BIR was obtained during field trials of dent corn.
During the field trial, HPPD resistant AMATA (common waterhemp, Amaranthus rudis Sauer) was tested as follows: • 1) 70 g ai/ha diflufenican—providing 55% control • 2) 202 g ai/ha MST+50 g ai/ha BIR—providing 30% control • 3) 70 g ai/ha diflufenican+202 g ai/ha MST+50 g ai/ha BIR—providing 92% control.
The results were collected 34 days after application. The inclusion of a Group 12 herbicide with at least one HPPD-inhibitor, specifically MST+BIR, provided surprising control of HPPD-resistant weeds.

[5] = tested on: HPPD-resistant (RW478-16) Amaranthus sp. (AMAPA); experiment: Pre-emergent synergy test of DFF with MST + BIR (Tables 1-3), Colby; type: in vivo; conditions: pre-emergence, 528 h, 22 days after treatment, read-out: Activity (% control) (RW478-16)
From the text: as §1, §2, §3
(§5) Synergy was further tested for in sensitive (S-129) and HPPD-resistant (RW478-16) Amaranthus sp. (AMAPA) in pre-emergent tests according to the treatments in Table 1 below.
(§6) Dose responses rates were calculated for the treatments at 22 days after treatment which are provided in FIGS. 3 and 4, and further summarized in Table 2.

[6] = tested on: sensitive (S-129) Amaranthus sp. (AMAPA); experiment: as above; type: in vivo; conditions: pre-emergence, 528 h, 22 days after treatment, read-out: Activity (% control) (S-129)
From the text: as §1, §2, §3, §5, §6

[7] = tested on: HPPD-resistant (RW478-16) Amaranthus sp. (AMAPA); experiment: Pre-emergent synergy test of PIC with MST + BIR (Tables 4-6), Colby; type: in vivo; conditions: 22 days after treatment
From the text: as §1, §2, §3, §5
(§7) Similar tests were performed with picolinafen (PIC) and mesotrione+bicyclopyrone (MST+BIR), as summarized by Table 4.

[8] = tested on: sensitive (S-129) Amaranthus sp. (AMAPA); experiment: as above; type: in vivo; conditions: 22 days after treatment
From the text: as §1, §2, §3, §5, §7

[9] = (IFT 12.3) g/ha without Group 12
[10] = (MST 25.3) g/ha without Group 12
[11] = (BIR 6.3) g/ha without Group 12

Compound: CCC(Oc1ccc(F)c(C(F)(F)F)c1)C(=O)NCc1ccccc1 (centres unmarked) [BFB, beflubutamid]
- Observed Product 1-(Group 12) [1]: 37%
- Observed Product 1-(Group 12) [2]: 67%

Compound: O=C(Nc1ccc(F)cc1F)c1cccnc1Oc1cccc(C(F)(F)F)c1 [DFF, diflufenican]
- % control of HPPD-R AMAPA ([3]; alone at 35 g ai/ha): 98%
- % control of HPPD resistant AMATA [4]: 55%
- inhibition at 1.58 g/ha ([5]; DFF 1.58 g ai/ha alone): 77%
- inhibition at 2.11 g/ha ([5]; DFF 2.11 g ai/ha alone): 53%
- inhibition at 3.16 g/ha ([5]; DFF 3.16 g ai/ha alone): 45%
- inhibition at 7.9 g/ha ([5]; DFF 7.9 g ai/ha alone): 22%
- inhibition at 15.8 g/ha ([5]; DFF 15.8 g ai/ha alone): 18%
- inhibition at 31.6 g/ha ([5]; DFF 31.6 g ai/ha alone): 3%
- inhibition at 1.58 g/ha ([6]; DFF 1.58 g ai/ha alone): 100%
- inhibition at 2.11 g/ha ([6]; DFF 2.11 g ai/ha alone): 94%
- inhibition at 3.16 g/ha ([6]; DFF 3.16 g ai/ha alone): 72%
- inhibition at 7.9 g/ha ([6]; DFF 7.9 g ai/ha alone): 23%
- inhibition at 15.8 g/ha ([6]; DFF 15.8 g ai/ha alone): 10%
- inhibition at 31.6 g/ha ([6]; DFF 31.6 g ai/ha alone): 13%
- Observed Product 1-(Group 12) [1]: 70%
- Observed Product 1-(Group 12) [2]: 99%

Compound: O=C1C(Cl)C(CCl)CN1c1cccc(C(F)(F)F)c1 (centres unmarked) [FLU, flurochloridone]
- Observed Product 1-(Group 12) [1]: 27%
- Observed Product 1-(Group 12) [2]: 57%

Compound: CS(=O)(=O)c1cc(C(F)(F)F)ccc1C(=O)c1cnoc1C1CC1 [IFT, isoxaflutole]
- Observed Product 2-(HPPDs) [1, 9]: 37%
- Observed Product 2-(HPPDs) [2, 9]: 98%

Compound: CS(=O)(=O)c1ccc(C(=O)C2C(=O)CCCC2=O)c([N+](=O)[O-])c1 [MST, mesotrione]
- Observed Product 2-(HPPDs) [1, 10]: 28%
- Observed Product 2-(HPPDs) [2, 10]: 100%

Compound: O=C(Nc1ccc(F)cc1)c1cccc(Oc2cccc(C(F)(F)F)c2)n1 [PIC, picolinafen]
- control of HPPD-Resistant AMAPA ([3]; Picolinafen 35 g ai/ha alone): did not adequately control
- Activity (% control) (RW478-16) ([7]; PIC 1.58 g ai/ha alone): 0%
- Activity (% control) (RW478-16) ([7]; PIC 2.11 g ai/ha alone): 7%
- Activity (% control) (RW478-16) ([7]; PIC 3.16 g ai/ha alone): 10%
- Activity (% control) (RW478-16) ([7]; PIC 7.9 g ai/ha alone): 10%
- Activity (% control) (RW478-16) ([7]; PIC 15.8 g ai/ha alone): 40%
- Activity (% control) (RW478-16) ([7]; PIC 31.6 g ai/ha alone): 53%
- Activity (% control) (S-129) ([8]; PIC 1.58 g ai/ha alone): 10%
- Activity (% control) (S-129) ([8]; PIC 2.11 g ai/ha alone): 22%
- Activity (% control) (S-129) ([8]; PIC 3.16 g ai/ha alone): 17%
- Activity (% control) (S-129) ([8]; PIC 7.9 g ai/ha alone): 30%
- Activity (% control) (S-129) ([8]; PIC 15.8 g ai/ha alone): 53%
- Activity (% control) (S-129) ([8]; PIC 31.6 g ai/ha alone): 72%
- Observed Product 1-(Group 12) [1]: 28%
- Observed Product 1-(Group 12) [2]: 77%

Compound: bicyclopyrone [BIR]
- Observed Product 2-(HPPDs) [1, 11]: 20%
- Observed Product 2-(HPPDs) [2, 11]: 57%
